Data reported in US20080200448A1, “New Pyridine Analogues VIII 518” (ASTRAZENECA AB, priority 2007, published 2008).
Read-outs that look alike come from different tables or passages of the source.

Molecular target: T1, P2Y12 receptor (Homo sapiens, UniProt Q9H244)
T1 construct: expressed in transfected cells; host or cells: CHO cells (membrane preparation)
Assay: Functional inhibition of 2-Me-S-ADP induced P2Y12 signalling (35S-GTPγS binding, cell membranes)
Format: biochemical
Method: Functional inhibition of- the P2Y12 receptor can be measured by in vitro assays using cell membranes from P2Y12 transfected CHO-cells, the methodology is indicated below.
Functional inhibition of 2-Me-S-ADP induced P2Y12 signalling: 5 μg of membranes were diluted in 200 μl of 200 mM NaCl, 1 mM MgCl2, 50 mM HEPES (pH 7.4), 0.01% BSA, 30 μg/ml saponin and 10 μM GDP. To this was added an EC80 concentration of agonist (2-methyl-thio-adenosine diphosphate), the required concentration of test compound and 0.1 μCi ^35S-GTPγS. The reaction was allowed to proceed at 30° C. for 45 min. Samples were then transferred on to GF/B filters using a cell harvester and washed with wash buffer (50 mM Tris (pH 7.4), 5 mM MgCl2, 50 mM NaCl). Filters were then covered with scintilant and counted for the amount of ^35S-GTPγS retained by the filter. Maximum activity was that determined in the presence of the agonist and minimum activity in the absence of the agonist following subtraction of the value determined for non-specific activity. The effect of compounds at various concentrations was plotted according to the equation
y=A+((B−A)/(1+((C/x)̂D)))
and IC50 estimated where A is the bottom plateau of the curve i.e. the final minimum y value B is the top of the plateau of the curve i.e. the final maximum y value C is the x value at the middle of the curve. This represents the log EC50 value when A+B=100 D is the slope factor. x is the original known x values. Y is the original known y values.

[1] = 35S-GTPγS assay, membranes, EC80 concentration of 2-methyl-thio-adenosine diphosphate, 30° C. for 45 min, read-out: GTPγS (IC50 μM)

T1 sequence (Q9H244 whole entry): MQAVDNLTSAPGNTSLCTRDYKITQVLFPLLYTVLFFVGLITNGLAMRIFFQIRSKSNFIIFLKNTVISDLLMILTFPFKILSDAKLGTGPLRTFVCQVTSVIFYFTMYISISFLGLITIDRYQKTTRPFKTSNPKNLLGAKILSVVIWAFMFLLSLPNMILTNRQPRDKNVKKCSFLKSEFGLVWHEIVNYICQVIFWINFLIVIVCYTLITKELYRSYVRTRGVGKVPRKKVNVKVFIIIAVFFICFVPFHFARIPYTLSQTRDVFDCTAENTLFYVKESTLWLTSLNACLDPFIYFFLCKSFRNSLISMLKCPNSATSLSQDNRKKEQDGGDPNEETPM

IC50 [1] [µM]	IC50 (functional inhibition of 2-Me-S-ADP induced P2Y12 signalling, membranes from P2Y12 transfected CHO-cells, EC80 concentration of agonist, read-out: IC50) [µM]	SMILES
0.052		CCOC(=O)c1cc(C#N)c(N2CCC(C(=O)NS(=O)(=O)Cc3ccccc3)CC2)nc1CSc1nccn1C [Example 118, Ethyl 6-{4-[(benzylsulfonyl)carbamoyl]piperidin-1-yl}-5-cyano-2-{[(1-methyl-1H-imidazol-2-yl)thio]methyl}nicotinate]
0.072		CCOC(=O)c1cc(C#N)c(N2CCC(C(=O)NS(=O)(=O)Cc3ccccc3)CC2)nc1OCC(N)=O [Example 22, Ethyl 2-(2-amino-2-oxoethoxy)-6-{4-[(benzylsulfonyl)carbamoyl]piperidin-1-yl}-5-cyanonicotinate]
0.035		CCOC(=O)c1cc(C#N)c(N2CCC(C(=O)NS(=O)(=O)Cc3ccccc3)CC2)nc1CSc1nccs1 [Example 117, Ethyl 6-{4-[(benzylsulfonyl)carbamoyl]piperidin-1-yl}-5-cyano-2-[(1,3-thiazol-2-ylthio)methyl]nicotinate]
0.0033		CCOC(=O)c1cc(C#N)c(N2CCC(C(=O)NS(=O)(=O)Cc3ccc(F)cc3F)CC2)nc1CN1CCCC1=O [Example 38, Ethyl 5-cyano-6-(4-{[(2,4-difluorobenzyl)sulfonyl]carbamoyl}piperidin-1-yl)-2-[(2-oxopyrrolidin-1-yl)methyl]nicotinate]
0.148		CCOC(=O)c1cc(C#N)c(N2CCC(C(=O)NS(=O)(=O)Cc3ccc(F)cc3)CC2)nc1CN1CCCCC1=O [Example 62, Ethyl 5-cyano-6-(4-{[(4-fluorobenzyl)sulfonyl]carbamoyl}piperidin-1-yl)-2-[(2-oxopiperidin-1-yl)methyl]nicotinate]
0.024		CCOC(=O)c1cc(C#N)c(N2CCC(C(=O)NS(=O)(=O)Cc3ccc(OC)cc3)CC2)nc1CN1CCCCC1=O [Example 68, Ethyl 5-cyano-6-(4-{[(4-methoxybenzyl)sulfonyl]carbamoyl}piperidin-1-yl)-2-[(2-oxopiperidin-1-yl)methyl]nicotinate]
> 3.3		CC(C)OC(=O)c1cc(C#N)c(N2CCC(C(=O)NS(=O)(=O)CC3CCOCC3)CC2)nc1CN1CCCC1=O [Example 73, Isopropyl 5-cyano-2-[(2-oxopyrrolidin-1-yl)methyl]-6-(4-{[(tetrahydro-2H-pyran-4-ylmethyl)sulfonyl]carbamoyl}piperidin-1-yl)nicotinate]
0.093		CCOC(=O)c1cc(C#N)c(N2CCC(C(=O)N(CC(=O)O)S(=O)(=O)Cc3ccccc3)CC2)nc1C [Example 1, N-(benzylsulfonyl)-N-({1-[3-cyano-5-(ethoxycarbonyl)-6-methylpyridin-2-yl]piperidin-4-yl}carbonyl)glycine]
0.077		CCOC(=O)c1cc(Cl)c(N2CCC(C(=O)NS(=O)(=O)N(C)c3ccc(F)cc3)CC2)nc1CN1CCCC1=O [Example 92, Ethyl 5-chloro-6-[4-({[(4-fluorophenyl)(methyl)amino]sulfonyl}carbamoyl)piperidin-1-yl]-2-[(2-oxopyrrolidin-1-yl)methyl]nicotinate]
0.0081		CCOC(=O)c1cc(C#N)c(N2CCC(C(=O)NS(=O)(=O)Cc3ccccc3)CC2)nc1SCC(=O)O [Example 26, {[6-{4-[(Benzylsulfonyl)carbamoyl]piperidin-1-yl}-5-cyano-3-(ethoxycarbonyl)pyridin-2-yl]thio}acetic acid]
0.028		CC(C)OC(=O)c1cc(C#N)c(N2CCC(C(=O)NS(=O)(=O)CC3CCCCC3)CC2)nc1CN1CCCC1=O [Example 82, Isopropyl 5-cyano-6-(4-{[(cyclohexylmethyl)sulfonyl]carbamoyl}piperidin-1-yl)-2-[(2-oxopyrrolidin-1-yl)methyl]nicotinate]
0.027		CCOC(=O)c1cc(C#N)c(N2CCC(C(=O)NS(=O)(=O)Cc3ccccc3)CC2)nc1OCCN1CCCC1=O [Example 114, Ethyl 6-{4-[(benzylsulfonyl)carbamoyl]piperidin-1-yl}-5-cyano-2-[2-(2-oxopyrrolidin-1-yl)ethoxy]nicotinate]
0.025		CCOC(=O)c1cc(C#N)c(N2CCC(C(=O)NS(=O)(=O)Cc3ccccc3)CC2)nc1OCC(=O)O [Example 24, {[6-{4-[(Benzylsulfonyl)carbamoyl]piperidin-1-yl}-5-cyano-3-(ethoxycarbonyl)pyridin-2-yl]oxy}acetic acid]
0.094		CC(C)OC(=O)c1cc(C#N)c(N2CCC(C(=O)NS(=O)(=O)CC3CCC3)CC2)nc1CN1CCCC1=O [Example 81, Isopropyl 5-cyano-6-(4-{[(cyclobutylmethyl)sulfonyl]carbamoyl}piperidin-1-yl)-2-[(2-oxopyrrolidin-1-yl)methyl]nicotinate]
0.129	0.13	CCOC(=O)c1cc(C#N)c(N2CCC(C(=O)NS(=O)(=O)Cc3ccccc3)CC2)nc1CS(C)(=O)=O [Example 12, Ethyl 6-{4-[(benzylsulfonyl)carbamoyl]piperidin-1-yl}-5-cyano-2-[(methylsulfonyl)methyl]nicotinate]
0.072		CCOC(=O)CSc1nc(N2CCC(C(=O)NS(=O)(=O)Cc3ccc(F)cc3Cl)CC2)c(C#N)cc1C(=O)OCC [Example 108, Ethyl 6-(4-{[(2-chloro-4-fluorobenzyl)sulfonyl]carbamoyl}piperidin-1-yl)-5-cyano-2-[(2-ethoxy-2-oxoethyl)thio]nicotinate]
0.194		CCOC(=O)c1cc(Cl)c(N2CCC(C(=O)NS(=O)(=O)CC3CCCCC3)CC2)nc1CN1CCCC1=O [Example 94, Ethyl 5-chloro-6-(4-{[(cyclohexylmethyl)sulfonyl]carbamoyl}piperidin-1-yl)-2-[(2-oxopyrrolidin-1-yl)methyl]nicotinate]
0.031		CCOC(=O)c1cc(Br)c(N2CCC(C(=O)NS(=O)(=O)Cc3ccccc3)CC2)nc1CN1CCCC1=O [Example 84, Ethyl 6-{4-[(benzylsulfonyl)carbamoyl]piperidin-1-yl}-5-bromo-2-[(2-oxopyrrolidin-1-yl)methyl]nicotinate]
0.0073		CCOC(=O)c1cc(C#N)c(N2CCC(C(=O)NS(=O)(=O)N(C)c3ccc(F)cc3)CC2)nc1CN1CCCC1=O [Example 76, Ethyl 5-cyano-6-[4-({[(4-fluorophenyl)(methyl)amino]sulfonyl}carbamoyl)piperidin-1-yl]-2-[(2-oxopyrrolidin-1-yl)methyl]nicotinate]
0.027		CCOC(=O)c1cc(C#N)c(N2CCC(C(=O)NS(=O)(=O)Cc3ccccc3)CC2)nc1OCCC#N [Example 17, Ethyl 6-{4-[(benzylsulfonyl)carbamoyl]piperidin-1-yl}-5-cyano-2-(2-cyanoethoxy)nicotinate]
0.013		CCOC(=O)c1cc(C#N)c(N2CCC(C(=O)NS(=O)(=O)Cc3ccccc3)CC2)nc1SCC(=O)N1CCC1 [Example 124, Ethyl 2-[(2-azetidin-1-yl-2-oxoethyl)thio]-6-{4-[(benzylsulfonyl)carbamoyl]piperidin-1-yl}-5-cyanonicotinate]
0.0097		CCOC(=O)c1cc(C#N)c(N2CCC(C(=O)NS(=O)(=O)Cc3ccc(C(F)(F)F)cc3)CC2)nc1CN1CCCC1=O [Example 35, Ethyl 5-cyano-2-[(2-oxopyrrolidin-1-yl)methyl]-6-[4-({[4-(trifluoromethyl)benzyl]sulfonyl}carbamoyl)piperidin-1-yl]nicotinate]
0.05		CCOC(=O)c1cc(C#N)c(N2CCC(C(=O)NS(=O)(=O)Cc3ccccc3)CC2)nc1OCCn1cccc1 [Example 113, Ethyl 6-{4-[(benzylsulfonyl)carbamoyl]piperidin-1-yl}-5-cyano-2-[2-(1H-pyrrol-1-yl)ethoxy]nicotinate]
0.01		CCOC(=O)c1cc(C#N)c(N2CCC(C(=O)NS(=O)(=O)Cc3ccc(Cl)cc3F)CC2)nc1CN1CCCC1=O [Example 44, Ethyl 6-(4-{[(4-chloro-2-fluorobenzyl)sulfonyl]carbamoyl}piperidin-1-yl)-5-cyano-2-[(2-oxopyrrolidin-1-yl)methyl]nicotinate]
0.02		CC(C)OC(=O)c1cc(C#N)c(N2CCC(C(=O)NS(=O)(=O)Cc3ccc(C(F)(F)F)cc3)CC2)nc1CN1CCCC1=O [Example 50, Isopropyl 5-cyano-2-[(2-oxopyrrolidin-1-yl)methyl]-6-[4-({[4-(trifluoromethyl)benzyl]sulfonyl}carbamoyl)piperidin-1-yl]nicotinate]
0.041		CCOC(=O)c1cc(Cl)c(N2CCC(C(=O)NS(=O)(=O)Cc3ccccc3)CC2)nc1CN1CCCC1=O [Example 85, Ethyl 6-{4-[(benzylsulfonyl)carbamoyl]piperidin-1-yl}-5-chloro-2-[(2-oxopyrrolidin-1-yl)methyl]nicotinate]
0.03		CCOC(=O)c1cc(C#N)c(N2CCC(C(=O)NS(=O)(=O)Nc3ccccc3)CC2)nc1CN1CCCC1=O [Example 55, Ethyl 6-{4-[(anilinosulfonyl)carbamoyl]piperidin-1-yl}-5-cyano-2-[(2-oxopyrrolidin-1-yl)methyl]nicotinate]

SMILES	IC50 [1] [µM]	IC50 (functional inhibition of 2-Me-S-ADP induced P2Y12 signalling, membranes from P2Y12 transfected CHO-cells, EC80 concentration of agonist, read-out: IC50) [µM]
CCOC(=O)c1cc(C#N)c(N2CC(C(=O)NS(=O)(=O)Cc3ccccc3)C2)nc1COC(C)=O [Example 7, Ethyl 2-(acetoxymethyl)-6-{3-[(benzylsulfonyl)carbamoyl]azetidin-1-yl}-5-cyanonicotinate]	0.076	
